Values quoted from earlier work, collected in patent US20220213156A1, “Peptides for use in therapy or prophylaxis of Herpesviridae-infections” (priority 2019, published 2022).
Where “and” joins values, the source holds several entries; their conditions need not be identical. Identical values can stand only once.

Test system: multidrug resistant CMV isolate (H815-2006)
Conditions: isolate H815-2006 with UL97 L595S and UL54 V715M; cited from earlier work

Nc1nc(O)c2ncn(COC(CO)CO)c2n1 [GCV, Ganciclovir]
IC50: > 30 µM and 31.5 µM
